Laboratory results taken from patent US9518015B2, “EP1 receptor ligands” (LABORATORIOS DEL DR. ESTEVE, S.A., priority 2011, dated 2016).

Target: T1, human EP1 receptor (Homo sapiens, UniProt P34995)
T1 sequence (P34995 1-402): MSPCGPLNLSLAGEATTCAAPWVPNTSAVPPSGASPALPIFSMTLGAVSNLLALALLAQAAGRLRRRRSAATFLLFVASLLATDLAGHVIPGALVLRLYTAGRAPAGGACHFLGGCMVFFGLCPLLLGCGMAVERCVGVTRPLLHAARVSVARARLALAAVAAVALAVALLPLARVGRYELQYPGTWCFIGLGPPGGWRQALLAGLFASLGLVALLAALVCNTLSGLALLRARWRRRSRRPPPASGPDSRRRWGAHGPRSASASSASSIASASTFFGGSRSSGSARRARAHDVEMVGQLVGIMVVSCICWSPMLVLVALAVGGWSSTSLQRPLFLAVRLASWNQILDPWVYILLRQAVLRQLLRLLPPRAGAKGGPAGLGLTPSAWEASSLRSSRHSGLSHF
Experiment: Test 2: Measurement of IP1 responses by HTRF, suspended HEK-293 cells stably expressing human EP1 receptors, PGE2 30 nM
Assay type: cell-based
Design: expressed in transfected cells
Conditions: HEK293, at 10 μM, read-out: Results of Test 2 (Functional assay), % inh
Experimental: Test 2: Measurement of IP1 responses by Homogeneous Time Resolved Fluorescence
IP1 measurements on HEK-293 cells that stably expressed human EP1 receptors were performed by using a system based on Homogeneous Time Resolved Fluorescense (HTRF) (Gabriel et al., 2003). This technology allows the direct measurement of IP1 in living cells. The principle of this assay is based on competition between IP1 produced by cells and IP1-d2 conjugate for the binding with monoclonal anti-IP1-cryptate conjugate. The HTRF IP1 kit from CisBio was used according to the manufacturer's directions. The experimental procedure was performed as stated below.
Suspended cells (30,000 cells per well) were added to 96-well culture plates in 40 μl of stimulation buffer (supplied by the kit). Compounds were then added in 20 μl of stimulation buffer and incubated at 37° C. for 15 minutes followed by 10 μl of PGE2 to a final concentration of […]. After 90 minutes at 37° C., the reaction was stopped lysing the cells with a mixture of 15 μl of cryptate and 15 μl of IP1-d2 prepared in the lysis buffer supplied by the manufacturer. Plates were incubated for an additional hour at room temperature and read at 665 nm/620 nm using an UltraEvolution Plate reader (Tecan).
Antagonist percentage inhibition was calculated relating compounds activity to the 0% inhibition of the wells incubated with 10 nM PGE2 alone and 100% inhibition of the wells incubated with 10 nM PGE2 plus 1 μM of the reference antagonist.

Compound	inhibition at 10 µM [%]
O=C(O)c1cccc2c1ccn2Cc1cc(Cl)ccc1OCc1ccc(F)cc1F [Example 43, 1-(5-chloro-2-((2,4-difluorobenzyl)oxy)benzyl)-1H-indole-4-carboxylic acid]	> 75
CC(C)COc1cc(Cl)ccc1Cn1ccc2c(C(=O)O)cccc21 [Example 10, 1-(4-chloro-2-isobutoxybenzyl)-1H-indole-4-carboxylic acid]	45 to 75
O=C(O)c1cccc2c1ccn2Cc1cc(Cl)cc(Cl)c1OCc1ccc(Cl)cc1F [Example 59, 1-(3,5-dichloro-2-((4-chloro-2-fluorobenzyl)oxy)benzyl)-1H-indole-4-carboxylic acid]	45 to 75
O=C(O)c1cccc2c1ccn2Cc1cc(Cl)ccc1OCc1c(F)cc(Br)cc1F [Example 58, 1-(2-((4-bromo-2,6-difluorobenzyl)oxy)-5-chlorobenzyl)-1H-indole-4-carboxylic acid]	> 75
O=C(O)c1cccc2c1ccn2Cc1cc(C(F)(F)F)ccc1OCc1ccc(Cl)cc1F [Example 6, 1-(2-((4-chloro-2-fluorobenzyl)oxy)-5-(trifluoromethyl)benzyl)-1H-indole-4-carboxylic acid]	> 75
O=C(O)c1cccc2c1ccn2Cc1cc(F)ccc1OCc1ccc(F)cc1C(F)(F)F [Example 18, 1-(5-fluoro-2-((4-fluoro-2-(trifluoromethyl)benzyl)oxy)benzyl)-1H-indole-4-carboxylic acid]	> 75
O=C(O)c1ccc2c(ccn2Cc2cc(Cl)ccc2OCc2ccc(F)cc2C(F)(F)F)c1 [Example 67]	45 to 75
O=C(O)c1cccc2c1ccn2Cc1cc(F)ccc1OCc1cc(F)c(F)cc1Cl [Example 36, 1-(2-((2-chloro-4,5-difluorobenzyl)oxy)-5-fluorobenzyl)-1H-indole-4-carboxylic acid]	45 to 75
O=C(O)c1ccc2c(ccn2Cc2cc(Br)ccc2OCc2ccc(F)cc2Cl)c1 [Example 70, 1-(5-bromo-2-((2-chloro-4-fluorobenzyl)oxy)benzyl)-1H-indole-5-carboxylic acid]	> 75
O=C(O)c1ccc2c(ccn2Cc2cc(F)ccc2OCc2cc(F)c(F)cc2F)c1 [Example 65]	> 75
O=C(O)/C=C/c1cccc2c1ccn2Cc1cc(Cl)ccc1OCC1CC1 [Example 81, (E)-3-(1-(5-chloro-2-(cyclopropylmethoxy)benzyl)-1H-indol-4-yl)acrylic acid]	> 75
O=C(O)c1cccc2c1ccn2Cc1cc(C(F)(F)F)ccc1OCc1cc(F)ccc1F [Example 39, 1-(2-((2,5-difluorobenzyl)oxy)-5-(trifluoromethyl)benzyl)-1H-indole-4-carboxylic acid]	> 75
O=C(O)c1cccc2c1ccn2Cc1cc(Cl)ccc1CCc1ccc(Cl)cc1F [Example 63, 1-(5-chloro-2-(4-chloro-2-fluorophenethyl)benzyl)-1H-indole-4-carboxylic acid]	> 75
O=C(O)c1cccc2c1ccn2Cc1cc(Br)ccc1OCc1ccc(F)cc1 [Example 4, 1-(5-bromo-2-((4-fluorobenzyl)oxy)benzyl)-1H-indole-4-carboxylic acid]	> 75
O=C(O)c1ccc2c(ccn2Cc2cc(Br)ccc2OCc2ccc(F)cc2F)c1 [Example 74, 1-(5-bromo-2-((2,4-difluorobenzyl)oxy)benzyl)-1H-indole-5-carboxylic acid]	45 to 75
O=C(O)c1cccc2c1ccn2Cc1cc(F)ccc1OCc1ccc(F)cc1 [Example 35, 1-(5-fluoro-2-((4-fluorobenzyl)oxy)benzyl)-1H-indole-4-carboxylic acid]	> 75
O=C(O)c1cccc2c1ccn2Cc1cc(C(F)(F)F)ccc1OCc1ccccc1F [Example 52, 1-(2-((2-fluorobenzyl)oxy)-5-(trifluoromethyl)benzyl)-1H-indole-4-carboxylic acid]	> 75
O=C(O)c1cccc2c1ccn2Cc1cc(Br)ccc1OCc1ccccc1 [Example 2, 1-(2-(benzyloxy)-5-bromobenzyl)-1H-indole-4-carboxylic acid]	> 75

Continued, values first:

inhibition at 10 µM [%]	Compound
45 to 75	O=C(O)c1cccc2c1ccn2Cc1cc(Cl)cc(Br)c1OCc1ccc(Br)cc1F [Example 28, 1-(3-bromo-2-((4-bromo-2-fluorobenzyl)oxy)-5-chlorobenzyl)-1H-indole-4-carboxylic acid]
> 75	O=C(O)c1cccc2c1ccn2Cc1cc(C(F)(F)F)ccc1OCc1ccccc1 [Example 3, 1-(2-(benzyloxy)-5-(trifluoromethyl)benzyl)-1H-indole-4-carboxylic acid]
> 75	O=C(O)c1ccc2c(ccn2Cc2cc(F)ccc2OCc2ccc(F)cc2Cl)c1 [Example 66, 1-(2-((2-chloro-4-fluorobenzyl)oxy)-5-fluorobenzyl)-1H-indole-5-carboxylic acid]
> 75	O=C(O)c1cccc2c1ccn2Cc1cc(Cl)ccc1OCc1ccc(Br)cc1F [Example 46, 1-(2-((4-bromo-2-fluorobenzyl)oxy)-5-chlorobenzyl)-1H-indole-4-carboxylic acid]
> 75	O=C(O)c1cccc2c1ccn2Cc1cc(Cl)ccc1OCC1CC1 [Example 7, 1-(5-chloro-2-(cyclopropylmethoxy)benzyl)-1H-indole-4-carboxylic acid]
> 75	O=C(O)c1cccc2c1ccn2Cc1cc(Cl)ccc1OCc1ccc(F)cc1 [Example 5, 1-(5-chloro-2-((4-fluorobenzyl)oxy)benzyl)-1H-indole-4-carboxylic acid]
> 75	O=C(O)c1ccc2c(ccn2Cc2cc(Cl)ccc2OCC2CC2)c1 [Example 64, 1-(5-chloro-2-(cyclopropylmethoxy)benzyl)-1H-indole-5-carboxylic acid]
> 75	O=C(O)c1ccnc2c1ccn2Cc1cc(Cl)ccc1OCc1ccc(Cl)cc1F [Example 90, 1-(5-chloro-2-((4-chloro-2-fluorobenzyl)oxy)benzyl) -1H-pyrrolo[2,3-b]pyridine-4-carboxylic acid]
> 75	O=C(O)/C=C/c1cccc2c1ccn2Cc1cc(Cl)ccc1OCc1ccc(F)cc1F [Example 82, (E)-3-(1-(5-chloro-2-((2,4-difluorobenzyl)oxy)benzyl)-1H-indol-4-yl)acrylic acid]
> 75	O=C(O)c1ccc2ccn(Cc3cc(Br)ccc3OCc3ccccc3)c2c1 [Example 87, 1-(2-(benzyloxy)-5-bromobenzyl)-1H-indole-6-carboxylic acid]
45 to 75	O=C(O)c1cccc2c1ccn2Cc1ncccc1OCc1ccc(Cl)cc1F [Example 61, 1-((3-((4-chloro-2-fluorobenzyl)oxy)pyridin-2-yl)methyl)-1H-indole-4-carboxylic acid]
> 75	O=C(O)c1cccc2c1CCCN2Cc1cc(Cl)ccc1OCc1ccc(F)cc1F [Example 95]
> 75	O=C(O)c1cccc2c1ccn2Cc1cc(Br)ccc1OCc1ccc(Cl)cc1F [Example 9, 1-(5-bromo-2-((4-chloro-2-fluorobenzyl)oxy)benzyl)-1H-indole-4-carboxylic acid]

Same assay, conditions: at 10 μM

Results of Test 2 (Functional assay), % inh	Compound
$$ (45 < % inh < 75)	2-((1-(5-chloro-2-(cyclopropylmethoxy)benzyl)-1H-indol-4-yl)oxy)acetic acid [Example 86]
